This is an account of results in patent US12460244B2, “Inhibitors of RNA-guided nuclease activity and uses thereof” (THE BROAD INSTITUTE, INC., priority 2018, dated 2025).

Assay [1] has as its target T1, SpCas9 (Streptococcus pyogenes serotype M1, UniProt Q99ZW2). The experiment in a line: Broad spectrum CRISPR inhibition, SpCas9 (FIG. 22A). Format: biochemical, S. pyogenes.
The target of assay [2] is T1, SpCas9. To be noted: FIG. 16C.
The next assay concerns the target FnCpf1 (Francisella tularensis subsp. novicida, UniProt A0Q7Q2). Type of assay: biochemical. To be noted: FIG. 22B.
Assay [3] relates to CRISPR mediated gene tagging with HiBiT. The experiment in a line: CRISPR mediated gene tagging with HiBiT in cells (bioluminescence). Type of assay: cell-based. To be noted: various concentrations; FIG. 17B.
In assay [4] the target is T1, SpCas9. The experiment in a line: cell-based.

Molecules are shown by their SMILES. Entries after “also recorded” stand apart in the source; their conditions may differ.

T1 sequence (Q99ZW2 whole entry): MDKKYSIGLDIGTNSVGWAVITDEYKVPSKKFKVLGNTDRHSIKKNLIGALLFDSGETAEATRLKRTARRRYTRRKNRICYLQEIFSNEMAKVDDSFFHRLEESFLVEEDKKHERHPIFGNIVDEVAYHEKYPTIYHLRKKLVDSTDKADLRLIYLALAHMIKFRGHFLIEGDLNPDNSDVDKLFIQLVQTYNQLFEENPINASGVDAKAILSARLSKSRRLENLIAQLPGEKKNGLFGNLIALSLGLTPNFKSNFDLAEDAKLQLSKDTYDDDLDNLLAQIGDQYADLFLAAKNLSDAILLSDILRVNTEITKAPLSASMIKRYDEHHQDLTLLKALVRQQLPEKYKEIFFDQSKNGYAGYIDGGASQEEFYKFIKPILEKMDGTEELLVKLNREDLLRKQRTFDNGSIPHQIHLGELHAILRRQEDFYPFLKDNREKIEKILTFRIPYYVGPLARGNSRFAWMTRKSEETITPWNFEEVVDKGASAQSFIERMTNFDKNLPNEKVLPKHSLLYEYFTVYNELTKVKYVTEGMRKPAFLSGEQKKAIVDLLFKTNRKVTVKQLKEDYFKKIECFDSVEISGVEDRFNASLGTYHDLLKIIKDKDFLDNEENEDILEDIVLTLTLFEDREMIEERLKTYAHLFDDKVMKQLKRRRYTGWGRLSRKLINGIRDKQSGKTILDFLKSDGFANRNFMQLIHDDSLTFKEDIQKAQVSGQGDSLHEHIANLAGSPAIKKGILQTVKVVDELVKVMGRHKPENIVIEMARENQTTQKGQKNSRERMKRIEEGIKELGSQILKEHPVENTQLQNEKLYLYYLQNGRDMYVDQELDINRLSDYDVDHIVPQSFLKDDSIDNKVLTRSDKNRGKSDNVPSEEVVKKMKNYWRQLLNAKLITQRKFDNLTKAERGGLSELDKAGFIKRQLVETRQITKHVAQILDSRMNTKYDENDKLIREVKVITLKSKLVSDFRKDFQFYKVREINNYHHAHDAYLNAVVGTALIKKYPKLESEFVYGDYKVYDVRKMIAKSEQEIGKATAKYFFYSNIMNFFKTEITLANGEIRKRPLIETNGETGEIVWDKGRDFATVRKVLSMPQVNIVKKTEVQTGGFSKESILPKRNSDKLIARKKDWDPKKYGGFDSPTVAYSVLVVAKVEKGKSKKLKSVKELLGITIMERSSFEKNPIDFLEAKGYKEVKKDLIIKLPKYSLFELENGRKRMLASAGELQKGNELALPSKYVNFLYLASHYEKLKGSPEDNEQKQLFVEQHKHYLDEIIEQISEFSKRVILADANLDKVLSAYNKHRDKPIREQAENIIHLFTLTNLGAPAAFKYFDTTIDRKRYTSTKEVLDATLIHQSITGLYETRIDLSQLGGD
Chain of FnCpf1 (A0Q7Q2 whole entry, looked up): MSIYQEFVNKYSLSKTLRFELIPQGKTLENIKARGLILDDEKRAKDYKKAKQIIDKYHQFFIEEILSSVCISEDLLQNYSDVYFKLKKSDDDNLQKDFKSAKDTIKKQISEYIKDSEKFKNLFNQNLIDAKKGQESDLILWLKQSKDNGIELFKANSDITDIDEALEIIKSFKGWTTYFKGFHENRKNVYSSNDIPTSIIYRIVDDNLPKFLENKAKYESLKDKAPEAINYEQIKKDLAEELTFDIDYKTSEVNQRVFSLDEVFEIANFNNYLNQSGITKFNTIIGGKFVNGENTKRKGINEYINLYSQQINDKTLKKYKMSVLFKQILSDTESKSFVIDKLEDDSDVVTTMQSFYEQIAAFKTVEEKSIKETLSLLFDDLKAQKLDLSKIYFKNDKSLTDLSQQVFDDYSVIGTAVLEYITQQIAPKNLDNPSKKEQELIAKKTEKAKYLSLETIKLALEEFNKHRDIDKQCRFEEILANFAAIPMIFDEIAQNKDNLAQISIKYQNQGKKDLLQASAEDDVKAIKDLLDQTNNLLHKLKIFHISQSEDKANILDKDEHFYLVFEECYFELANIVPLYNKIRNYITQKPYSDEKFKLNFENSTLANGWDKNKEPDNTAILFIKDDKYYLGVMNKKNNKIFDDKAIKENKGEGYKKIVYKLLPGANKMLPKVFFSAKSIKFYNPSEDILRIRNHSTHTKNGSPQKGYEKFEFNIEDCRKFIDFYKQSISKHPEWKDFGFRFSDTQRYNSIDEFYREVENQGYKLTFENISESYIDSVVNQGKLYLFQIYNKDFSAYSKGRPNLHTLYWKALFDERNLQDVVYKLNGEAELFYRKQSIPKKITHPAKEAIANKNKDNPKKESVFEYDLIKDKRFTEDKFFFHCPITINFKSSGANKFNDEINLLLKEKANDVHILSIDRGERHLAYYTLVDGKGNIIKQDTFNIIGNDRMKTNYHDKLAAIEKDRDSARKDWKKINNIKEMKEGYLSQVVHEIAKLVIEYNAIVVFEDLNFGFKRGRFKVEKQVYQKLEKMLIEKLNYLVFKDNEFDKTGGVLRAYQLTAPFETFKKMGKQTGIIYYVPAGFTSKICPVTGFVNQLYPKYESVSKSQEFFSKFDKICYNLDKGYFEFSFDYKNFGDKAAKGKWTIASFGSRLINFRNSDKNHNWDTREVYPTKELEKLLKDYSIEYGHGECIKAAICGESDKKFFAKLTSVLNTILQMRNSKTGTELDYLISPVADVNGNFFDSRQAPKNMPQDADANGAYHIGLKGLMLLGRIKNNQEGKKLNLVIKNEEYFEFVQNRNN

`N#C[C@@H]1N[C@H](CO)[C@H]1c1ccc(-c2ccccc2F)cc1` [BRD7608]: the “Inhibition of SpCas9” value at SpCas9 [1] was “broad-spectrum CRISPR inhibitors; also recorded: similarly inhibit”. Moreover, at SpCas9 [2], the “eGFP fluorescence in the presence of eGFP-targeted SpCas9 activity” value is reported as “eGFP fluorescence is maintained”. For the same molecule, the “Inhibition of FnCpf1” value on FnCpf1 is given as “broad-spectrum CRISPR inhibitors; also recorded: similarly inhibit”. Further, in assay [3], the “Inhibition of CRISPR mediated gene tagging with HiBiT (bioluminescence)” value is listed as “inhibited in a dose-dependent manner”. The molecule further registered an IC50 on SpCas9 [4] of 3.9 µM.
In the case of `N#C[C@H]1N[C@@H](CO)[C@@H]1c1ccc(C#CC2CCCC2)cc1` [BRD9822], at SpCas9 [1], the “Inhibition of SpCas9” value is recorded as “broad-spectrum CRISPR inhibitors; also recorded: similarly inhibit”. Also, the “eGFP fluorescence in the presence of eGFP-targeted SpCas9 activity” value at SpCas9 [2] is “eGFP fluorescence is maintained”. Besides, the “Inhibition of FnCpf1” value on FnCpf1 was “broad-spectrum CRISPR inhibitors; also recorded: similarly inhibit”. Moreover, in assay [3], the “Inhibition of CRISPR mediated gene tagging with HiBiT (bioluminescence)” value is listed as “inhibited in a dose-dependent manner”. This molecule returned an IC50 against SpCas9 [4] of 5.5 µM.
